Measured values taken from article PMC7497641, “Neurotropic activity and safety of methylene-cycloalkylacetate (MCA) derivative 3-(3-allyl-2-methylenecyclohexyl) propanoic acid” (ACS Chemical Neuroscience, 2020).

What was measured:
[1] = Single-dose acute tolerance, intravenous; type: in vivo, Male C57BL/6 mice; details: 250 mg/kg intravenously
Protocol: This pilot study was conducted according to guidance for industry single dose acute toxicity testing for pharmaceuticals (https://www.fda.gov/regulatory-information/search-fda-guidance-documents/single-dose-acute-toxicity-testing-pharmaceuticals) to obtain acute information on the dose toxicity of HU-MCA-13 in male mice. Male C57BL/6 mice were injected intravenously with 0.2 mL of HU-MCA-13 in a dose of 250 mg/kg. […] The mortality and changes on body weight, clinical signs and gross observation, were monitored up to 30 days after treatment.
Sensory motor/neurological performance
The performance was weekly measured using several routine motor tests, but no neurological losses w ere observed (Table 1). Sensory motor tests were scored individually and according to the neurologic function severity score (NSS). The data from each individual test and the total score calculated from individual tests that make up the mNSS were measured. The following tests were […]
a. Beam balance test -mice were placed on a 2.5 cm wide beam for 60 seconds. A normal response is balance with steady posture for 60 seconds (a score of 0). Deficits are scored if the rat:
1. Grasps the side of the beam (score of 1); 2. Hugs the beam and one limb falls down from the beam (score of 2); 3. Hugs the beam and two limbs fall off the beam (score of 3); 4. Try to balance on the beam, but falls off from 60 seconds (score of 4); 5. Try to balance on the beam but falls off from 60 seconds (score of 5); 6. Falls off with no attempt to balance or hang on the beam in les s than 20 seconds (score of 6). b. Foot fault test- dysfunction of forelimb movement, while walking on elevated metal grids.
The animal was placed on horizontal grids (85 ×26 ×20) cm with a glass enclosure for observation.
With each weight bearing step, the forelimb can fall or slip between the metal support bars, an event recorded as a foot fault. The total number of forelimb steps and the total number of foot faults were counted. The percentage of forelimb foot faults to the total steps that occurred within 2 minutes represent the test results. c. Hind limb placing test- This assay monitors reposition of hind limbs placed down and away from the table edge. The ability to retrieve and place the hind limbs back onto the table was measured. Immediate and complete limb retrieval was scored 0, delayed (>2 seconds) limb retrieval and/or interspersed flailing was scored 1, and no limb retrieval was scored 2; d. Increasing platform angle to slide test- This assay measures the strength and stability of resistance to slide down an inclined platform. It deploys a clean wooden board (60 X 40 cm) positioned horizontally. Mice were placed on the board with head facing up the increasing incline.
The board then swings to increase the degree of inclination the rat experiences until slipping down the board feet first. The degree of the angle at which the rat relinquishes their grip/stance on the board (slips down) represents the test results; […]
e. Forelimb whole body suspension test- This assay measure s grip strength by duration of suspen sion by forepaws. The rat is suspended o n a metal bar (diameter of 5 mm) which it tightly holds onto by its forelimbs. The time (seconds) during which each rat could sustain its body weight while holding onto the bar is measured. The mice drop from the bar onto soft material with no harm. The test was repeated three times and a mean result per rat was used as the score. […]

[2] = molecular target: Adenosine Receptor A2A (ADORA2A) (Homo sapiens, UniProt P29274); assay: SAFETYscan GPCR Calcium Flux; type: cell-based; details: for MCA-13 Max. Responce: 10 μM
Sequence of Adenosine Receptor A2A (ADORA2A) (P29274 whole entry): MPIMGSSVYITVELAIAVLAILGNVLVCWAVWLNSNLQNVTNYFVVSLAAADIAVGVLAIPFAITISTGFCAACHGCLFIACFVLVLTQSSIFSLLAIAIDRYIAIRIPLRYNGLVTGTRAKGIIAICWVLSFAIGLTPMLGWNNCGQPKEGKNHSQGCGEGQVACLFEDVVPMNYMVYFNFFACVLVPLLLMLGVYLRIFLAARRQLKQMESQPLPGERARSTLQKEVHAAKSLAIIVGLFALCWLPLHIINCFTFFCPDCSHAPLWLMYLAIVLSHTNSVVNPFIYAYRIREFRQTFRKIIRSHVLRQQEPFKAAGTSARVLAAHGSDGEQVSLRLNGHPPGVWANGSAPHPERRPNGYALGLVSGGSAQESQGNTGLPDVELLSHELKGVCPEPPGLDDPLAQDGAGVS

[3] = molecular target: T1, Nicotinic acetylcholine Receptor alpha-4 beta-2 (nAChR(a4/b2)) (Homo sapiens, UniProt P17787+P43681); assay: cell-based; details: Ion channel, read-out: RC50 (the source's name)
T1 construct: host or cells: unnamed DiscoverX cell line
T1 sequence (P43681 29-627 limits assumed): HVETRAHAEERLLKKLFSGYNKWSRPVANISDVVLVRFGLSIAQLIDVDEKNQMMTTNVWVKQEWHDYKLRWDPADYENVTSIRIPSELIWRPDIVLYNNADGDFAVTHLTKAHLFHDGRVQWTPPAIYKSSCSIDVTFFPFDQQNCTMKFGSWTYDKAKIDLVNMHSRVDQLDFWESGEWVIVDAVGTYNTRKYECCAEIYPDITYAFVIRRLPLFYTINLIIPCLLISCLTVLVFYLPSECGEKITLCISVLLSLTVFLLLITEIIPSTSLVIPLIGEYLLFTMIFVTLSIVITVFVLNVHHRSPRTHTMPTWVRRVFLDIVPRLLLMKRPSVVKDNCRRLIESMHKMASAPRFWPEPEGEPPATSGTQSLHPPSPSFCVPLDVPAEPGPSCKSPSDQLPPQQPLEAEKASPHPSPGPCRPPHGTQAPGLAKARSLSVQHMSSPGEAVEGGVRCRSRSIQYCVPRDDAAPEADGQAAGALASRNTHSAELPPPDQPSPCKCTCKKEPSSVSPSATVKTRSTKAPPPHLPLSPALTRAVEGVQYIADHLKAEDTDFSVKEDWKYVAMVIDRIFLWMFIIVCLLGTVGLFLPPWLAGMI
T1 sequence (P17787 26-502): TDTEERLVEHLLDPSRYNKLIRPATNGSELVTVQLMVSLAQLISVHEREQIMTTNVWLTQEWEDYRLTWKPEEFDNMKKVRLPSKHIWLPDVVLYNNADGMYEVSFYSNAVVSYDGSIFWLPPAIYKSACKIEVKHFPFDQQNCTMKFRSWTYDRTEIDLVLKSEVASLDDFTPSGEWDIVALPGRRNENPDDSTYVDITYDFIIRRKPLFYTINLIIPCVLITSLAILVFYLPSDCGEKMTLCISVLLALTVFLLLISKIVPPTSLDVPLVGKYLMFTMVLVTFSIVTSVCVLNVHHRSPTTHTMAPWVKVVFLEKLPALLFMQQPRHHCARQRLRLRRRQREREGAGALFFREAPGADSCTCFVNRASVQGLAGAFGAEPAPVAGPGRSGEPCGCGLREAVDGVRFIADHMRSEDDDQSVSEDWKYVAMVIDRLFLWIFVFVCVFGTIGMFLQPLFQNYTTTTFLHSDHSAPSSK

C=CCC1CCCC(CCC(=O)O)C1=C (centres unmarked) [HU-MCA-13, 3-(3-allyl-2-methylenecyclohexyl)propanoic acid]
autonomic symptoms (salivation, urinary delivery, pupillary constriction, hair contraction) versus DMSO [1]: no differences were observed | mortality ([1]; single dose, monitored up to 30 days): could not find any mortality | sensory-motor performance, neurologic function severity score (NSS) ([1]; first week after injection): no neurological losses were observed | changes on body weight versus 1% DMSO treated group ([1]; up to 30 days): No significant changes | body weight at end ([1]; up to 30 days, started with 21 g): 27 g | MCA-13 Max. Responce ([2]; Agonist): 0% | MCA-13 Max. Responce ([2]; Antagonist): 4.09% | EC50 ([2]; Agonist, read-out: RC50 (the source's name)): > 10 µM | IC50 ([2]; Antagonist, read-out: RC50 (the source's name)): > 10 µM | IC50 ([3]; Blocker): > 10 µM | EC50 ([3]; Opener): > 10 µM
